Test results: patent US20090075951A1, “Methods and Reagents for the Treatment of Inflammatory Disorders” (CombinatoRx, Inc., priority 2003, published 2009)
Where two headings read alike, the source gives them in different places.

Columns and labels:
[1] = test system: TNFα secretion from LPS stimulated white blood cells from human buffy coat; assay: TNFα secretion assay, LPS stimulation; conditions: Homo sapiens, read-out: percent inhibition of TNFα secretion, LPS; for inhibition at 0.008 µM: Prednisolone 0.008 μM; for inhibition at 0.5 µM: Prednisolone 0.5 μM; for inhibition at 1 µM: Prednisolone 1 μM
Description: (§1) Various concentrations of each test compound were added at the time of stimulation. […] After the plate was washed with 0.1% Tween 20/PBS, an HRP-luminescent substrate was added to each well and light intensity measured using a LJL Analyst plate luminometer.

[2] = test system: TNFα secretion from PMA/ionomycin stimulated white blood cells from human buffy coat; assay: TNFα secretion assay, PMA/ionomycin stimulation
Description: as §1

[3] = Amoxapine μM r5-r13: 0,0.25,0.5,1,2,4,8,16,32
[4] = Clomipramine μM r5-r13: 0,0.45,0.89,1.8,3.6,7.1,14,28,57
[5] = Desipramine μM r5-r13: 0,0.5,1,2,4,8,16,32,64
[6] = Fluoxetine μM r5-r13: 0,0.23,0.45,0.9,1.8,3.6,7.2,14,29
[7] = Loxapine μM r5-r13: 0,0.35,0.7,1.4,2.8,5.6,11,22,45
[8] = Norclozapine μM r5-r13: 0,0.21,0.41,0.83,1.7,3.3,6.6,13,27
[9] = Nortriptyline μM r5-r13: 0,0.52,1,2.1,4.2,8.3,17,33,67

C[C@]12C=CC(=O)C=C1CC[C@@H]1[C@@H]2[C@@H](O)C[C@@]2(C)[C@H]1CC[C@]2(O)C(=O)CO [Prednisolone, prednisolone]
inhibition at 0.008 µM [1, 3]: 3.67% | inhibition at 0.008 µM [1, 4]: 2.55% | inhibition at 0.008 µM [1, 5]: 4.87% | inhibition at 0.008 µM [1, 6]: 1.18% | inhibition at 0.008 µM [1, 7]: 4.44% | inhibition at 0.008 µM [1, 8]: 18% | inhibition at 0.008 µM [1, 9]: 0.348% | inhibition at 0.5 µM [1, 3]: 59.1% | inhibition at 0.5 µM [1, 4]: 64.8% | inhibition at 0.5 µM [1, 5]: 57.6% | inhibition at 0.5 µM [1, 6]: 63.9% | inhibition at 0.5 µM [1, 7]: 68.8% | inhibition at 0.5 µM [1, 8]: 79% | inhibition at 0.5 µM [1, 9]: 51.9% | inhibition at 1 µM [1, 3]: 66.2% | inhibition at 1 µM [1, 4]: 66.9% | inhibition at 1 µM [1, 5]: 59.1% | inhibition at 1 µM [1, 6]: 71% | inhibition at 1 µM [1, 7]: 68.7% | inhibition at 1 µM [1, 8]: 83% | inhibition at 1 µM [1, 9]: 53.4% | inhibition at 0.01 µM ([2]; read-out: inhibition of TNFα secretion, Prednisolone 10 nM, Desipramine nM: 0, 50, 200, 799, 3197, 13000): -0.66% | inhibition at 0.01 µM ([2]; read-out: inhibition of TNFα secretion, Prednisolone 10 nM, Imipramine nM: 0, 99, 394, 1578, 6311, 25000): 0.037% | inhibition at 0.01 µM ([2]; read-out: inhibition of TNFα secretion, Prednisolone 10 nM, Nortriptyline nM: 0, 52, 208, 834, 3336, 13000): 4.27% | inhibition at 0.01 µM ([2]; read-out: inhibition of TNFα secretion, Prednisolone 10 nM, Protriptyline nM: 0, 52, 208, 834, 3336, 13000): 0.0342% | inhibition at […] ([2]; read-out: inhibition of TNFα secretion, Prednisolone 42 nM, Desipramine nM: 0, 50, 200, 799, 3197, 13000): 3.62% | inhibition at […] ([2]; read-out: inhibition of TNFα secretion, Prednisolone 42 nM, Imipramine nM: 0, 99, 394, 1578, 6311, 25000): 5.58% | inhibition at […] ([2]; read-out: inhibition of TNFα secretion, Prednisolone 42 nM, Nortriptyline nM: 0, 52, 208, 834, 3336, 13000): 7.41% | inhibition at 2.656 µM ([2]; read-out: inhibition of TNFα secretion, Prednisolone 2656 nM, Desipramine nM: 0, 50, 200, 799, 3197, 13000): 38.8% | inhibition at 2.656 µM ([2]; read-out: inhibition of TNFα secretion, Prednisolone 2656 nM, Imipramine nM: 0, 99, 394, 1578, 6311, 25000): 40.5% | inhibition at 2.656 µM ([2]; read-out: inhibition of TNFα secretion, Prednisolone 2656 nM, Nortriptyline nM: 0, 52, 208, 834, 3336, 13000): 38.3% | inhibition at 2.656 µM ([2]; read-out: inhibition of TNFα secretion, Prednisolone 2656 nM, Protriptyline nM: 0, 52, 208, 834, 3336, 13000): 45.2% | inhibition at 0.008 µM ([2]; read-out: percent inhibition of TNFα secretion, PMA/ionomycin, Prednisolone 0.008 μM, Amoxapine μM r5-r13: 0,0.25,0.5,1,2,4,8,16,32): -2.11% | inhibition at 0.008 µM ([2]; read-out: percent inhibition of TNFα secretion, PMA/ionomycin, Prednisolone 0.008 μM, Norclozapine μM r5-r13: 0,0.21,0.41,0.83,1.7,3.3,6.6,13,27): 17% | inhibition at 0.008 µM ([2]; read-out: percent inhibition of TNFα secretion, PMA/ionomycin, Prednisolone 0.008 μM, Nortriptyline μM r5-r13: 0,0.52,1,2.1,4.2,8.3,17,33,67): 9.54% | inhibition at 0.5 µM ([2]; read-out: percent inhibition of TNFα secretion, PMA/ionomycin, Prednisolone 0.5 μM, Amoxapine μM r5-r13: 0,0.25,0.5,1,2,4,8,16,32): 25% | inhibition at 0.5 µM ([2]; read-out: percent inhibition of TNFα secretion, PMA/ionomycin, Prednisolone 0.5 μM, Norclozapine μM r5-r13: 0,0.21,0.41,0.83,1.7,3.3,6.6,13,27): 44% | inhibition at 0.5 µM ([2]; read-out: percent inhibition of TNFα secretion, PMA/ionomycin, Prednisolone 0.5 μM, Nortriptyline μM r5-r13: 0,0.52,1,2.1,4.2,8.3,17,33,67): 29.2% | inhibition at 1 µM ([2]; read-out: percent inhibition of TNFα secretion, PMA/ionomycin, Prednisolone 1 μM, Amoxapine μM r5-r13: 0,0.25,0.5,1,2,4,8,16,32): 29.5% | inhibition at 1 µM ([2]; read-out: percent inhibition of TNFα secretion, PMA/ionomycin, Prednisolone 1 μM, Nortriptyline μM r5-r13: 0,0.52,1,2.1,4.2,8.3,17,33,67): 38.5% | inhibition at 0.008 µM ([2]; read-out: percent inhibition of TNFα secretion, Prednisolone 0.008 μM, Clomipramine μM 0, 0.45, 0.89, 1.8, 3.6, 7.1, 14, 28, 57): 7.57% | inhibition at 0.008 µM ([2]; read-out: percent inhibition of TNFα secretion, Prednisolone 0.008 μM, Desipramine μM 0, 0.5, 1, 2, 4, 8, 16, 32, 64): 3.11% | inhibition at 0.008 µM ([2]; read-out: percent inhibition of TNFα secretion, Prednisolone 0.008 μM, Fluoxetine μM by grid row: r5 0, r6 0.23, r7 0.45, r8 0.9, r9 1.8, r10 3.6, r11 7.2, r12 14, r13 29): 6.63% | inhibition at 0.008 µM ([2]; read-out: percent inhibition of TNFα secretion, Prednisolone 0.008 μM, Loxapine μM 0, 0.35, 0.7, 1.4, 2.8, 5.6, 11, 22, 45): 3.36% | inhibition at 0.01 µM ([2]; read-out: percent inhibition of TNFα secretion, Prednisolone 10 nM, Amitriptyline nM: 0, 50, 199, 796, 3186, 13000): -1.26% | inhibition at 0.01 µM ([2]; read-out: percent inhibition of TNFα secretion, Prednisolone 10 nM, Amoxapine nM: 0, 12, 50, 199, 797, 3187): 1.28% | inhibition at 0.01 µM ([2]; read-out: percent inhibition of TNFα secretion, Prednisolone 10 nM, Clomipramine nM: 0, 45, 178, 712, 2848, 11000): 0.29% | inhibition at […] ([2]; read-out: percent inhibition of TNFα secretion, Prednisolone 42 nM, Amitriptyline nM: 0, 50, 199, 796, 3186, 13000): 7.27% | inhibition at […] ([2]; read-out: percent inhibition of TNFα secretion, Prednisolone 42 nM, Amoxapine nM: 0, 12, 50, 199, 797, 3187): 7.71% | inhibition at […] ([2]; read-out: percent inhibition of TNFα secretion, Prednisolone 42 nM, Clomipramine nM: 0, 45, 178, 712, 2848, 11000): 6.83% | inhibition at 0.5 µM ([2]; read-out: percent inhibition of TNFα secretion, Prednisolone 0.5 μM, Clomipramine μM 0, 0.45, 0.89, 1.8, 3.6, 7.1, 14, 28, 57): 33.4% | inhibition at 0.5 µM ([2]; read-out: percent inhibition of TNFα secretion, Prednisolone 0.5 μM, Desipramine μM 0, 0.5, 1, 2, 4, 8, 16, 32, 64): 32.6% | inhibition at 0.5 µM ([2]; read-out: percent inhibition of TNFα secretion, Prednisolone 0.5 μM, Fluoxetine μM by grid row: r5 0, r6 0.23, r7 0.45, r8 0.9, r9 1.8, r10 3.6, r11 7.2, r12 14, r13 29): 39.3% | inhibition at 0.5 µM ([2]; read-out: percent inhibition of TNFα secretion, Prednisolone 0.5 μM, Loxapine μM 0, 0.35, 0.7, 1.4, 2.8, 5.6, 11, 22, 45): 31% | inhibition at 1 µM ([2]; read-out: percent inhibition of TNFα secretion, Prednisolone 1 μM, Clomipramine μM 0, 0.45, 0.89, 1.8, 3.6, 7.1, 14, 28, 57): 37.5% | inhibition at 1 µM ([2]; read-out: percent inhibition of TNFα secretion, Prednisolone 1 μM, Desipramine μM 0, 0.5, 1, 2, 4, 8, 16, 32, 64): 35.2% | inhibition at 1 µM ([2]; read-out: percent inhibition of TNFα secretion, Prednisolone 1 μM, Fluoxetine μM by grid row: r5 0, r6 0.23, r7 0.45, r8 0.9, r9 1.8, r10 3.6, r11 7.2, r12 14, r13 29): 30.6% | inhibition at 1 µM ([2]; read-out: percent inhibition of TNFα secretion, Prednisolone 1 μM, Loxapine μM 0, 0.35, 0.7, 1.4, 2.8, 5.6, 11, 22, 45): 34.8% | inhibition at 2.656 µM ([2]; read-out: percent inhibition of TNFα secretion, Prednisolone 2656 nM, Amitriptyline nM: 0, 50, 199, 796, 3186, 13000): 41.6% | inhibition at 2.656 µM ([2]; read-out: percent inhibition of TNFα secretion, Prednisolone 2656 nM, Amoxapine nM: 0, 12, 50, 199, 797, 3187): 39% | inhibition at 2.656 µM ([2]; read-out: percent inhibition of TNFα secretion, Prednisolone 2656 nM, Clomipramine nM: 0, 45, 178, 712, 2848, 11000): 42.1%
